Patent US11001605B2, “Cyclic dinucleotides containing benzimidazole, method for the production of same, and use of same to activate stimulator of interferon genes (sting)-dependent signaling pathways” (BIOLOG LIFE SCIENCE INSTITUTE GmbH & Co. KG, priority 2016, dated 2021)

How the values were obtained:
[1] = Lipophilicity determination by gradient HPLC (log k′g); type: physicochemical; conditions: HPLC gradient 1, RP-18, triethylammonium phosphate buffer pH 6.5 / methanol (ion pair chromatography)
Protocol: Gradient 1: Stationary phase: Polygosil 60-10, RP-18; 250×4 mm (Macherey & Nagel, DOren, Germany). Mobile phase A: 10 ml 1 M triethylammonium phosphate buffer (TEAP), pH 6.5+990 ml methanol. Mobile phase B: 10 ml 1 M TEAP, pH 6.5+990 ml H2O. Time program: 0 min: 100% B; 60 min: 100% A; 65 min: 100% A; 70 min: 100% B; 90 min: 100% B. Flow rate: 1.0 ml/min.
The octanol/water coefficient Log P is the commonly accepted indicator for the expected property of a given chemical entity to pass cellular membranes by passive diffusion. However, its practical determination for polar compounds such as multiply charged nucleotides is difficult in reality. Often, the information about membrane permeability must be received by fragmental analysis or other calculations.
Given this fact, an established HPLC method is used here, which is based on the measurement of retention on a reversed phase column^7. In contrast to Log P, this method yields the indicator log k′g, which allows for a ranking of different nucleotides of the same charge according to their lipophilicity.
Since CDNs are twofold negatively charged molecules which are only very insufficiently retarded on a reversed phase HPLC column, the determinations were performed in presence of the lipophilic triethylammonium cation (ion pair chromatography).
According to the established method^7 HPLC gradient 1 was used for the determination of lipophilicity.

THP1 Dual KO STING cells = test: SEAP reporter assay in THP1 Dual KO STING control cells; type: cell-based, human; conditions: 40 μg/ml, 24 hours (FIG. 2)
Protocol: (§1) Legend for Synthesis 5: THP1-Blue™ cells ((THP1-ISG); InvivoGen, catalogue number: thp-isg; concentration: 5×10^5/ml, 180 μl/well (96-well-plate) and THP1 Dual™ KO STING cells ((STING KO) InvivoGen, catalogue number: thpd-kostg; concentration: 5×10^5/ml, 180 μl/well (96-well-plate) were incubated with inventive CDNs (concentration 40 μg/ml each) in medium (RPMI-1640, 2 mM L-glutamine, 1.5 g/I sodium bicarbonate, 4.5 g/I glucose, 10 mM HEPES, 1 mM sodium pyruvate, 10% FCS, 100 μg/mL Zeocin™, 110 μg/mL Normocin™, Pen-Strep 50 U/mL) for 24 hours at 37° C. in 5% CO2. For incubations with THP1 Dual™ KO STING cells, 10 μg/ml of blasticidin were added to the medium. Quantification was performed with SEAP detection reagent QUANTI-Blue™ (InvivoGen; catalogue number: rep-qb1; incubation time: 15 min at 37° C. in 5% CO2) by optical density (OD) determination at 625 nm.

STING signalling pathway = test: Interferon-β promoter SEAP reporter assay in THP1-Blue cells; type: cell-based, human; conditions: 0, 10, 20, 40 μg/ml, 24 hours
Protocol: Legend for Synthesis 4: THP1-Blue™ cells ((THP1-ISG); InvivoGen, catalogue number: thp-isg; concentration: 5×10^5/ml, 180 μl/well (96-well-plate) were incubated with inventive CDNs in different concentrations (0 μg/ml; 10 μg/ml; 20 μg/ml; 40 μg/ml) in medium (RPMI-1640, 2 mM L-glutamine, 1.5 g/I sodium bicarbonate, 4.5 g/I glucose, 10 mM HEPES, 1 mM sodium pyruvate, 10% FCS, 100 μg/ml Zeocin™, 110 μg/ml Normocin™, Pen-Strep 50 U/ml) for 24 hours at 37° C. in 5% CO2. The quantification was performed with SEAP detection reagent QUANTI-Blue™ (InvivoGen; catalogue number: rep-qb1; incubation time: 30 min at 37° C. in 5% CO2) by optical density (OD) determination at 625 nm.
as §1
Cell line: THP1-Blue™ cells (InvivoGen, catalogue number: thp-isg) are derived from THP1 cells. THP1-Blue™ cells in a cell culture dish are stimulated by the administration of a CDN according to the invention or a buffer control.
In these genetically modified cells, the gene for secreted embryonic alkaline phosphatase (SEAP) is under the control of an interferon-β promoter.
After stimulation of the cells with an inventive CDN, the supernatant of the cell culture was removed and the enzymatic activity of SEAP was measured photometrically in a colorimetric assay by measuring the extinction at 625 nm (optical density; OD 625 nm).
Administration of an inventive CDN induces an increase in the activity of SEAP, which is a measure of the activity of the STING signalling pathway.

SMILES: Nc1ncnc2c1ncn2[C@@H]1O[C@@H]2COP(=O)(O)OC3C(O)[C@H](n4cnc5ccccc54)O[C@@H]3COP(=O)(O)OC2C1F (stereo partly drawn) [Compound 79, cyclic (2′-fluoro-2′-deoxyadenosine-(3′ −> 5′)-monophosphate-benzimidazole riboside-(3′ −> 5′)-monophosphate)]
- log k′g [1]: 1.322
- effect of elevated OD at 625 nm in STING knock out cells (THP1 Dual KO STING cells): no longer observed
- SEAP activity, elevated OD at 625 nm, concentration-dependent (STING signalling pathway): positive

SMILES: Nc1nc2c(ncn2[C@@H]2O[C@@H]3COP(=O)(S)OC4C(O)[C@H](n5cnc6cc(Cl)c(Cl)cc65)O[C@@H]4COP(=O)(S)OC2C3O)c(=O)[nH]1 (single isomer, unassigned) [Compound 29, MI2, Cyclic (guanosine-(2′→5′)-monophosphorothioate-5,6-dichlorobenzimidazole riboside-(3′→5′)-monophosphorothioate)]
- log k′g ([1]; listed as 29, MI2): 2.403
- effect of elevated OD at 625 nm in STING knock out cells (THP1 Dual KO STING cells): no longer observed
- SEAP activity, elevated OD at 625 nm, concentration-dependent (STING signalling pathway): positive

SMILES: Nc1ncnc2c1ncn2[C@@H]1O[C@@H]2COP(=O)(S)OC3C(O)[C@@H](COP(=O)(S)OC2C1O)O[C@H]3n1cnc2ccccc21 (single isomer, unassigned) [Compound 98, MI1, Cyclic (adenosine-(3′→5′)-monophosphorothioate-benzimidazole riboside-(2′→5′)-monophosphorothioate)]
- log k′g ([1]; listed as 98, MI1): 1.524
- effect of elevated OD at 625 nm in STING knock out cells (THP1 Dual KO STING cells): no longer observed
- SEAP activity, elevated OD at 625 nm, concentration-dependent (STING signalling pathway): positive
